Experiments:
Assay in all cases: In vitro MMP inhibition, IC50 determination (fluorogenic substrate I)
Format in all cases: biochemical
Conditions in all cases: value outside parentheses (Ki in parenthesis)
Human recombinant MMP-2 = biological target: T1, Human recombinant MMP-2 (Homo sapiens, UniProt P08253)
T1 construct: made in house; host or cells: MMP-2-transfected p2AHT2 cells
T1 sequence (P08253 110-660): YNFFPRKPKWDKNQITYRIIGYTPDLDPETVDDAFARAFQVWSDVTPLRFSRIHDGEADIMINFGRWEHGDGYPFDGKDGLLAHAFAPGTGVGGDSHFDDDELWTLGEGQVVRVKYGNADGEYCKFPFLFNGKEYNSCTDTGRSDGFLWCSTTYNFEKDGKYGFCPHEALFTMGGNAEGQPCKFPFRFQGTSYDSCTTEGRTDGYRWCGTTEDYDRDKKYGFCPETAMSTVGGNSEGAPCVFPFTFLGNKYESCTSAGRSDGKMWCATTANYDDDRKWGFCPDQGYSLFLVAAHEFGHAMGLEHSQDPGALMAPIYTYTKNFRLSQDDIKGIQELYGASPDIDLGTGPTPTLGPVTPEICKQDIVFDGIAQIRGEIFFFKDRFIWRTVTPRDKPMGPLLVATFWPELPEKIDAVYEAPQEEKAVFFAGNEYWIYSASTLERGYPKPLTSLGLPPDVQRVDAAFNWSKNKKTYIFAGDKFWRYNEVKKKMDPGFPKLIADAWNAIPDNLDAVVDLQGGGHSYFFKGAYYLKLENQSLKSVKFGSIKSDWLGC
Summary of the method: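 APMA- or trypsin-activated recombinant MMP-2 was incubated at room temperature with serial inhibitor dilutions in Tris buffer pH 7.5 (100 mM NaCl, 10 mM CaCl2, 0.05% Brij), with DMSO from 1% stocks, and 4 μM substrate I. Cleavage was read by fluorescence at 328/415 nm; IC50 was taken from the loss of fluorescence versus inhibitor concentration.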

Human recombinant MMP-1 = biological target: T2, Human recombinant MMP-1 (Homo sapiens, UniProt P03956)
T2 construct: made in house; host or cells: MMP-1-transfected HT-1080 cells (spent media)
T2 sequence (P03956 100-469): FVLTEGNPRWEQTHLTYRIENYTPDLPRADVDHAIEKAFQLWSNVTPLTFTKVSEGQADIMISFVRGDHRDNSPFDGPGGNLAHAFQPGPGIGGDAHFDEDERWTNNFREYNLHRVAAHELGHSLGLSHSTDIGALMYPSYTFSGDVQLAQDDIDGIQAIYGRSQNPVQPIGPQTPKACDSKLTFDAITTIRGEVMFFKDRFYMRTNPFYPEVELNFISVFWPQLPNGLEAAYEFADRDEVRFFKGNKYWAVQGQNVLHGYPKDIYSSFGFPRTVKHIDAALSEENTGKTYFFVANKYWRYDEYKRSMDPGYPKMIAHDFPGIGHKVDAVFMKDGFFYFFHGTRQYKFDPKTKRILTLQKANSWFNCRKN
Summary of the method: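 APMA- or trypsin-activated enzyme, purified from spent media of transfected HT-1080 cells, incubated at room temperature with 4 μM MCA-Pro-Leu-Gly-Leu-Dpa-Ala-Arg-NH2 and graded inhibitor in Tris buffer pH 7.5 (10 mM CaCl2, 0.05% Brij). Cleavage read by fluorescence (ex 328/em 415 nm); IC50 from fluorescence reduction versus inhibitor concentration.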

Human recombinant MMP-14 = biological target: T3, Human recombinant MMP-14 (Homo sapiens, UniProt P50281)
T3 construct: The catalytic domain enzyme was expressed in E. coli inclusion bodies, solubilized in urea; made in house
Summary of the method: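 Catalytic-domain MMP-14, expressed in E. coli and refolded, activated with APMA or trypsin; compounds incubated at room temperature with 4 μM fluorogenic substrate I (MCA-PLGL-Dpa-AR-NH2) in Tris/NaCl/CaCl2 buffer, pH 7.5. Fluorescence at ex 328/em 415 nm; IC50 from loss of fluorescence versus inhibitor concentration.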

Human recombinant MMP-9 = biological target: T4, Human recombinant MMP-9 (Homo sapiens, UniProt P14780)
T4 construct: made in house; host or cells: MMP-9-transfected HT1080 cells (spent media)
Summary of the method: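 MMP-9 proenzyme purified from transfected HT1080 cell media, activated with APMA or trypsin. Compound dilutions in pH 7.5 Tris/NaCl/CaCl2 buffer with 0.05% polyoxyethylene 23 lauryl ether, incubated at room temperature with 4 μM MCA/Dpa substrate I. IC50 from fluorescence loss (ex 328, em 415 nm) versus inhibitor concentration.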

Human recombinant MMP-13 = biological target: T5, Human recombinant MMP-13 (Homo sapiens, UniProt P45452)
T5 construct: made in house; host or cells: baculovirus / insect cells
Summary of the method: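 Fluorescence at 415 nm (excitation 328 nm) reports Gly-Leu cleavage of 4 μM quenched methoxycoumarin peptide substrate I. Human recombinant MMP-13, activated by trypsin or APMA, was incubated at room temperature with varied inhibitor concentrations in pH 7.5 Tris/NaCl/CaCl2 buffer; IC50 derived from reduced fluorescence.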

T4 sequence (P14780 107-707 limits assumed): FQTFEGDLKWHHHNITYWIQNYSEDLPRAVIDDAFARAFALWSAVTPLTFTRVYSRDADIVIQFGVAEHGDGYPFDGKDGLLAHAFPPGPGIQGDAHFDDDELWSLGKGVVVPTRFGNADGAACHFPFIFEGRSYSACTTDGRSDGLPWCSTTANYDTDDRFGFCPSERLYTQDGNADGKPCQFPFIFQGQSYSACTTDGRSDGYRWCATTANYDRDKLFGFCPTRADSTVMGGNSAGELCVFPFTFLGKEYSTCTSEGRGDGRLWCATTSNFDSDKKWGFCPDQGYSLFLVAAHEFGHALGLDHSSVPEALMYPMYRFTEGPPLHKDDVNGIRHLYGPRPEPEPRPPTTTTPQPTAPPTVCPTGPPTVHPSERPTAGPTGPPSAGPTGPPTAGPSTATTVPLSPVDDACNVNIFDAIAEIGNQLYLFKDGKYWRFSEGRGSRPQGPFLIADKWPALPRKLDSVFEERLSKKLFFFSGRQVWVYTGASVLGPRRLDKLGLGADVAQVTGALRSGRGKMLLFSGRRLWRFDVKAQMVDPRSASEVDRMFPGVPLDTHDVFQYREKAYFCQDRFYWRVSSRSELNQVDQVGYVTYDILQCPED

| Structure (SMILES) | IC50 (Human recombinant MMP-2) [nM] | IC50 (Human recombinant MMP-1) [nM] | IC50 (Human recombinant MMP-14) [nM] | IC50 (Human recombinant MMP-9) [nM] | IC50 (Human recombinant MMP-13) [nM] |
| --- | --- | --- | --- | --- | --- |
| COC(=O)c1ccc(C(=O)NCCCOc2ccc(S(=O)(=O)C3(C(=O)NO)CCOCC3)cc2)cc1 [Example 368] | 150 | > 10000 | > 10000 | 9000 | 0.8 |
| Cc1ccc(C(=O)NCCCOc2ccc(S(=O)(=O)C3(C(=O)NO)CCOCC3)cc2)cc1C [Example 371] | 1100 | > 10000 | > 10000 | 9600 | 2.4 |
| Cc1ccc(C(=O)NCCCOc2ccc(S(=O)(=O)C3(C(=O)NO)CCOCC3)cc2)c(C)c1 [Example 373] | 940 | > 10000 | > 10000 | 3940 | 7 |
| O=C(NCCCOc1ccc(S(=O)(=O)C2(C(=O)NO)CCOCC2)cc1)c1cc2ccccc2cc1O [Example 376] | 360 | > 10000 | > 10000 | > 10000 | 0.8 |
| O=C(NCCCOc1ccc(S(=O)(=O)C2(C(=O)NO)CCOCC2)cc1)c1cnc(Cl)c(Cl)c1 [Example 384] | 176 | > 10000 | > 10000 | 2630 | 0.8 |
| O=C(NCCCOc1ccc(S(=O)(=O)C2(C(=O)NO)CCOCC2)cc1)c1cccnc1 [Example 385] | 253 | 4340 | > 10000 | > 10000 | 3.3 |
| Cc1cc(C(=O)NCCCOc2ccc(S(=O)(=O)C3(C(=O)NO)CCOCC3)cc2)no1 [Example 386] | 131 | > 10000 | 9720 | 35.3 | 1.2 |
| O=C(NCCCOc1ccc(S(=O)(=O)C2(C(=O)NO)CCOCC2)cc1)c1cnc2ccccc2c1 [Example 390] | 907 | > 10000 | > 10000 | > 10000 | 2.7 |
| COc1ccc(C(=O)NCC(C)(C)COc2ccc(S(=O)(=O)C3(C(=O)NO)CCOCC3)cc2)cc1 [Example 392] | > 10000 | > 10000 | > 10000 | > 10000 | 40 |
| CCCC(C)C(=O)NCCCOc1ccc(S(=O)(=O)C2(C(=O)NO)CCOCC2)cc1 (stereo not shown) [Example 403] | 454 | > 10000 | > 10000 | > 10000 | 5.2 |
| O=C(NCCCOc1ccc(S(=O)(=O)C2(C(=O)NO)CCOCC2)cc1)C12CC3CC(CC(C3)C1)C2 [Example 405] | 2350 | > 10000 | > 10000 | > 10000 | 1.9 |
| CN(C)c1ccc(C(=O)NCCCOc2ccc(S(=O)(=O)C3(C(=O)NO)CCN(C4CC4)CC3)cc2)cc1 [Example 406] | 2200 | > 10000 | > 10000 | > 10000 | 4 |
| O=C(NO)C1(S(=O)(=O)c2ccc(OCCCSc3nc4ccc(Cl)cc4o3)cc2)CCOCC1 [Example 408] | 90 | > 10000 | 6810 | 49 | 2.5 |
| O=C(NO)C1(S(=O)(=O)c2ccc(OCCSc3nc4c(Cl)cc(Cl)cc4o3)cc2)CCOCC1 [Example 409] | 23 | > 10000 | 5640 | 160 | 1 |
| O=C(NO)C1(S(=O)(=O)c2ccc(OCCSc3nc4ccccc4o3)cc2)CCOCC1 [Example 410] | 12 | 4700 | 515 | 202 | 1.1 |
| Cc1ccc2c(c1)CCCN2CCCCCOc1ccc(S(=O)(=O)C2(C(=O)NO)CCOCC2)cc1 [Example 415] | 51 | > 10000 | > 10000 | 1780 | 15 |
| COc1ccc(NC(=O)NCCOc2ccc(S(=O)(=O)C3(C(=O)NO)CCOCC3)cc2)cc1 [Example 418] | 1500 | > 10000 | > 10000 | > 10000 | 64 |

Source: patent US20040024024A1, “Aromatic sulfone hydroxamates and their use as protease inhibitors” (priority 2001, published 2004)
